One series in a line: CHI Log D procedure. The series is classed as physicochemical. The following applies: pH 7.4, CHI Log D.
A further series is described as follows: Solubility in PBS. The series is classed as physicochemical. An outline of the steps:
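Solubility is derived from HPLC peak areas: the ratio of the PBS supernatant peak to a 50 μM DMSO peptide peak, times 50 uM.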

For series [1], the target named is T1, full-length beta-Catenin (Uniprot ID P35222) (Homo sapiens, UniProt P35222).
T1 construct: 10 nM full-length beta-Catenin (Uniprot ID P35222)
T1 sequence (P35222 1-781): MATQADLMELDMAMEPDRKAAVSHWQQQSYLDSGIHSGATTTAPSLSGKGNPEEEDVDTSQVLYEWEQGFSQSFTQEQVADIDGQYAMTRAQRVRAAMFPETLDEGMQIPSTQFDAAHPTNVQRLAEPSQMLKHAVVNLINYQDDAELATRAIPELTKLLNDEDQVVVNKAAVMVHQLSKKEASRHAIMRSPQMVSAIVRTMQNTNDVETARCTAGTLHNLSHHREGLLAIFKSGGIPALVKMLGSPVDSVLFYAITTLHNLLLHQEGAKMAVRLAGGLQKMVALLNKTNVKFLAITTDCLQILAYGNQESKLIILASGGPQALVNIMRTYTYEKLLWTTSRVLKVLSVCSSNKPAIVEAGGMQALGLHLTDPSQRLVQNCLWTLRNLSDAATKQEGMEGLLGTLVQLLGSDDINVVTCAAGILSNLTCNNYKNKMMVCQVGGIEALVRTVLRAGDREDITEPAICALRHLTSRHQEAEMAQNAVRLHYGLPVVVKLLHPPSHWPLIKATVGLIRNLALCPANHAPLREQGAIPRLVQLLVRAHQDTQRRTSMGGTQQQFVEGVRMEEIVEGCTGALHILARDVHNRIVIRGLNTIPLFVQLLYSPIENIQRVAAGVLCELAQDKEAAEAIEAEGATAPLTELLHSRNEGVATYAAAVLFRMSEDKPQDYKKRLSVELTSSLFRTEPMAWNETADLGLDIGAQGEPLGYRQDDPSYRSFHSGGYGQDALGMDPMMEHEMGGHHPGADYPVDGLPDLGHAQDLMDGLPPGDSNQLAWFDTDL
The series can be described thus: Fluorescence polarization IC50 (beta-catenin / 5FAM-TCF4 10-53 competition). The series is classed as binding. The conditions noted are these: read-out: beta-Catenin FP IC50.

Series [2] addresses T2, beta-catenin/TCF4 engagement (Homo sapiens, UniProt P35222).
T2 construct: expressed in transfected cells; host or cells: HEK293
T2 sequence (P35222 1-781): T1 sequence (P35222 1-781)
Briefly: Nano-BRET target engagement assay (B-cat-Halo & TCF4-Luc in HEK293 cells). The series is classed as cell-based. The conditions noted are these: read-out: NanoBRET Abs IC50.

This is an account of results in US20240116985A1, “STAPLED PEPTIDES AND METHODS THEREOF” (priority 2020, published 2024).

SMILES strings stand for the structures. ≈ marks a conversion by molar mass, not a printed value. Read-outs that look alike come from different tables or passages of the source.

Turning to `CC(=O)N1CCC[C@]12CC=CCCCC1(CCCC=CCCCOC(=O)N3CC[C@@](C(=O)N[C@@H](Cc4ccccc4Cl)C(=O)N[C@@H](Cc4csc5ccccc45)C(=O)N[C@@H](CCC(N)=O)C(N)=O)(C3)NC(=O)[C@H](CC3CCCCC3)NC(=O)[C@H](Cc3ccccc3)NC(=O)[C@H](C)NC(=O)[C@H](C)NC(=O)[C@H](CC(=O)O)NC(=O)[C@H](CC(=O)O)NC1=O)NC(=O)[C@H](CC1CCCCC1)NC(=O)[C@H](CC(=O)O)NC2=O` (stereo partly drawn) [I-1107, Ac-PL3-Asp-Cha-B5-Asp-Asp-Ala-Ala-Phe-Cha-PyrS2-2C1F-BztA-Gln-NH2], the chromatographic logD in “CHI Log D procedure” was 2.64. Besides, the “Solubility” value in “Solubility in PBS” is 10 µM (≈ 20.1 µg/mL). Besides, the IC50 in series [1] worked out at 18 nM; in series [2], 11800 nM.

In the series “CHI Log D procedure”, `CC(=O)N1CCC[C@]12CC=CCCCC1(CCCC=CCCCOC(=O)N3CC[C@@](C(=O)N[C@@H](Cc4ccccc4Cl)C(=O)N[C@@H](Cc4csc5ccccc45)C(=O)N[C@@H](CCC(N)=O)C(N)=O)(C3)NC(=O)[C@H](CO)NC(=O)[C@H](Cc3ccccc3)NC(=O)[C@H](C)NC(=O)[C@H](C)NC(=O)[C@H](CC(=O)O)NC(=O)[C@H](CC(=O)O)NC1=O)NC(=O)[C@H](Cc1cccc3ccccc13)NC(=O)[C@H](CC(=O)O)NC2=O` (stereo partly drawn) [I-1108, Ac-PL3-Asp-1NapA-B5-Asp-Asp-Ala-Ala-Phe-Ser-PyrS2-2C1F-BztA-Gln-NH2] showed a chromatographic logD of 2.29. For the same compound, in “Solubility in PBS” (Solubility (uM)), the Solubility came out at 42 µM (≈ 83.6 µg/mL). The figures for the IC50 in series [1] and in series [2] were 18 nM and > 20000 nM, respectively.

In turn, `CC(=O)N1CCC[C@]12CC=CCCCC1(CCCC=CCCCOC(=O)N3CC[C@@](C(=O)N[C@@H](Cc4ccccc4Cl)C(=O)N[C@@H](Cc4csc5ccccc45)C(=O)N[C@@H](CCC(N)=O)C(N)=O)(C3)NC(=O)[C@H](CO)NC(=O)[C@H](Cc3ccccc3)NC(=O)[C@H](C)NC(=O)[C@H](C)NC(=O)[C@H](CC(=O)O)NC(=O)[C@H](CC(=O)O)NC1=O)NC(=O)[C@H](Cc1ccc3ccccc3c1)NC(=O)[C@H](CC(=O)O)NC2=O` (stereo partly drawn) [I-1109, Ac-PL3-Asp-2NapA-B5-Asp-Asp-Ala-Ala-Phe-Ser-PyrS2-2C1F-BztA-Gln-NH2] had a chromatographic logD in the series “CHI Log D procedure” of 2.31. In addition, the Solubility in “Solubility in PBS” (Solubility (uM)) came out at 45 µM (≈ 89.5 µg/mL). Further, the IC50 was 24 nM in series [1] and > 20000 nM in series [2].

The compound `CC(=O)N1CCC[C@]12CC=CCCCC1(CCCC=CCCCOC(=O)N3CC[C@@](C(=O)N[C@@H](Cc4ccccc4Cl)C(=O)N[C@@H](Cc4csc5ccccc45)C(=O)N[C@@H](CCC(N)=O)C(N)=O)(C3)NC(=O)[C@H](CC(C)C)NC(=O)[C@H](Cc3ccccc3)NC(=O)[C@H](C)NC(=O)[C@H](C)NC(=O)[C@H](CC(=O)O)NC(=O)[C@H](CC(=O)O)NC1=O)NC(=O)[C@H](Cc1cccc3ccccc13)NC(=O)[C@H](CC(=O)O)NC2=O` (stereo partly drawn) [I-1110, Ac-PL3-Asp-1NapA-B5-Asp-Asp-Ala-Ala-Phe-Leu-PyrS2-2C1F-BztA-Gln-NH2] displayed a chromatographic logD in the series “CHI Log D procedure” of 2.37. Also, the “Solubility” value in “Solubility in PBS” came out at 10 µM (≈ 20.2 µg/mL). Besides, the IC50 in series [1] is 38 nM; in series [2] it was > 20000 nM.

The compound `CC(=O)N1CCC[C@]12CC=CCCCC1(CCCC=CCCCOC(=O)N3CC[C@@](C(=O)N[C@@H](Cc4ccccc4Cl)C(=O)N[C@@H](Cc4csc5ccccc45)C(=O)N[C@@H](CCC(N)=O)C(N)=O)(C3)NC(=O)[C@H](CC(C)C)NC(=O)[C@H](Cc3ccccc3)NC(=O)[C@H](C)NC(=O)[C@H](C)NC(=O)[C@H](CC(=O)O)NC(=O)[C@H](CC(=O)O)NC1=O)NC(=O)[C@H](Cc1ccc3ccccc3c1)NC(=O)[C@H](CC(=O)O)NC2=O` (stereo partly drawn) [I-1111, Ac-PL3-Asp-2NapA-B5-Asp-Asp-Ala-Ala-Phe-Leu-PyrS2-2C1F-BztA-Gln-NH2] gave a chromatographic logD in “CHI Log D procedure” of 2.36. Moreover, in the series “Solubility in PBS”, the “Solubility” value was determined as 10 µM (≈ 20.2 µg/mL). Besides, the values for the IC50 in series [1] and in series [2] were 28 nM and > 20000 nM, respectively.

`CC(=O)N1CCC[C@]12CC=CCCCC1(CCCC=CCCCOC(=O)N3CC[C@@](C(=O)N[C@@H](Cc4ccccc4Cl)C(=O)N[C@@H](Cc4csc5ccccc45)C(=O)N[C@@H](CO)C(N)=O)(C3)NC(=O)[C@H]([C@@H](C)O)NC(=O)[C@H](Cc3ccccc3)NC(=O)[C@H](C)NC(=O)[C@H](C)NC(=O)[C@H](CC(=O)O)NC(=O)[C@H](CC(=O)O)NC1=O)NC(=O)[C@H](Cc1cccc3ccccc13)NC(=O)[C@H](CC(=O)O)NC2=O` (stereo partly drawn) [I-1114, Ac-PL3-Asp-1NapA-B5-Asp-Asp-Ala-Ala-Phe-Thr-PyrS2-2C1F-BztA-Ser-NH2]: the chromatographic logD in “CHI Log D procedure” stood at 2.49. This compound displayed a Solubility in the series “Solubility in PBS” (Solubility (uM)) of 28 µM (≈ 55 µg/mL). The IC50 in series [1] was 20 nM; in series [2], > 20000 nM.

In the case of `CC(=O)N1CCC[C@]12CC=CCCCC1(CCCC=CCCCOC(=O)N3CC[C@@](C(=O)N[C@@H](Cc4ccccc4Cl)C(=O)N[C@@H](Cc4csc5ccccc45)C(=O)N[C@@H](CO)C(N)=O)(C3)NC(=O)[C@H]([C@@H](C)O)NC(=O)[C@H](Cc3ccccc3)NC(=O)[C@H](C)NC(=O)[C@H](C)NC(=O)[C@H](CC(=O)O)NC(=O)[C@H](CC(=O)O)NC1=O)NC(=O)[C@H](Cc1ccc3ccccc3c1)NC(=O)[C@H](CC(=O)O)NC2=O` (stereo partly drawn) [I-1115, Ac-PL3-Asp-2NapA-B5-Asp-Asp-Ala-Ala-Phe-Thr-PyrS2-2C1F-BztA-Ser-NH2], the chromatographic logD in “CHI Log D procedure” came to 2.5. Further, the Solubility in “Solubility in PBS” (Solubility (uM)) is 32 µM (≈ 62.8 µg/mL). Moreover, the IC50 in series [1] was found to be 28 nM; in series [2], 24300 nM.

For the compound `COc1cccc(C[C@@H]2NC(=O)[C@H](C)NC(=O)[C@H](C)NC(=O)[C@H](CC(=O)O)NC(=O)[C@H](CC(=O)O)NC(=O)C3(CCCC=CCCCOC(=O)N4CC[C@@](C(=O)N[C@@H](Cc5ccccc5Cl)C(=O)N[C@@H](Cc5csc6ccccc56)C(=O)N[C@@H](CCC(N)=O)C(N)=O)(C4)NC(=O)[C@H](CO)NC2=O)CCCC=CC[C@]2(CCCN2C(C)=O)C(=O)N[C@@H](CC(=O)O)C(=O)N[C@@H](CC2CCCCC2)C(=O)N3)c1` (stereo partly drawn) [I-1118, Ac-PL3-Asp-Cha-B5-Asp-Asp-Ala-Ala-3OMeF-Ser-PyrS2-2C1F-BztA-Gln-NH2], the chromatographic logD in “CHI Log D procedure” was 2.34. Further, the Solubility in “Solubility in PBS” (Solubility (uM)) was determined as 37 µM (≈ 73.1 µg/mL). Moreover, the half-maximal inhibitory concentration (IC50) in series [1] was 24 nM; in series [2], 29500 nM.

For `CC(=O)N1CCC[C@]12CC=CCCCC1(CCCC=CCCCOC(=O)N3CC[C@@](C(=O)N[C@@H](Cc4ccccc4Cl)C(=O)N[C@@H](Cc4csc5ccccc45)C(=O)N[C@@H](CCC(N)=O)C(N)=O)(C3)NC(=O)[C@H](CO)NC(=O)[C@H](Cc3cccc(C(F)(F)F)c3)NC(=O)[C@H](C)NC(=O)[C@H](C)NC(=O)[C@H](CC(=O)O)NC(=O)[C@H](CC(=O)O)NC1=O)NC(=O)[C@H](CC1CCCCC1)NC(=O)[C@H](CC(=O)O)NC2=O` (stereo partly drawn) [I-1119, Ac-PL3-Asp-Cha-B5-Asp-Asp-Ala-Ala-3F3MeF-Ser-PyrS2-2C1F-BztA-Gln-NH2], the chromatographic logD in the series “CHI Log D procedure” amounted to 2.51. This compound also gave a Solubility in the series “Solubility in PBS” (Solubility (uM)) of 31 µM (≈ 62.4 µg/mL). Also, the IC50 stood at 26 nM in series [1] and 19400 nM in series [2].

As to `CC(=O)N1CCC[C@]12CC=CCCCC1(CCCC=CCCCOC(=O)N3CC[C@@](C(=O)N[C@@H](Cc4ccccc4Cl)C(=O)N[C@@H](Cc4csc5ccccc45)C(=O)N[C@@H](CCC(N)=O)C(N)=O)(C3)NC(=O)[C@H](CO)NC(=O)[C@H](Cc3ccc(C(F)(F)F)cc3)NC(=O)[C@H](C)NC(=O)[C@H](C)NC(=O)[C@H](CC(=O)O)NC(=O)[C@H](CC(=O)O)NC1=O)NC(=O)[C@H](CC1CCCCC1)NC(=O)[C@H](CC(=O)O)NC2=O` (stereo partly drawn) [I-1120, Ac-PL3-Asp-Cha-B5-Asp-Asp-Ala-Ala-4F3MeF-Ser-PyrS2-2C1F-BztA-Gln-NH2], the chromatographic logD in the series “CHI Log D procedure” was determined as 2.54. The compound also came in with a Solubility in “Solubility in PBS” (Solubility (uM)) of 41 µM (≈ 82.6 µg/mL). The IC50 in series [1] was 85 nM; in series [2], > 20000 nM.

In the series “CHI Log D procedure”, `COc1cccc(C[C@@H]2NC(=O)[C@H](C)NC(=O)[C@H](C)NC(=O)[C@H](CC(=O)O)NC(=O)[C@H](CC(=O)O)NC(=O)C3(CCCC=CCCCOC(=O)N4CC[C@@](C(=O)N[C@@H](Cc5ccccc5Cl)C(=O)N[C@@H](Cc5csc6ccccc56)C(=O)N[C@@H](CCC(N)=O)C(N)=O)(C4)NC(=O)[C@H](CC(C)C)NC2=O)CCCC=CC[C@]2(CCCN2C(C)=O)C(=O)N[C@@H](CC(=O)O)C(=O)N[C@@H](CC(C)(C)C)C(=O)N3)c1` (stereo partly drawn) [I-1121, Ac-PL3-Asp-Npg-B5-Asp-Asp-Ala-Ala-3OMeF-Leu-PyrS2-2C1F-BztA-Gln-NH2] gave a chromatographic logD of 2.31. This compound also gave a Solubility in “Solubility in PBS” (Solubility (uM)) of 41 µM (≈ 81 µg/mL). The IC50 in series [1] turned out to be 18 nM; in series [2], 9200 nM.
